Measurements: the kinase profiling compilation of Christmann-Franck et al. (2016)

Legend:
Test in all cases: KINOMEscan competition binding
Details in all cases: compound 10.0 µM
CDK4 CCND1 (human) = CDK4 CCND1 (human) (UniProt P11802+P24385)
CDKL1 (human) = CDKL1 (human) (UniProt Q00532)
CDKL3 (human) = CDKL3 (human) (UniProt Q8IVW4)
CDKL5 (human) = CDKL5 (human) (UniProt O76039)
DDR1 (human) = DDR1 (human) (UniProt Q08345)
DSTYK (human) = DSTYK (human) (UniProt Q6XUX3)
DYRK2 (human) = DYRK2 (human) (UniProt Q92630)
EIF2AK1 (human) = EIF2AK1 (human) (UniProt Q9BQI3)
EPHB6 (human) = EPHB6 (human) (UniProt O15197)
ERBB3 (human) = ERBB3 (human) (UniProt P21860)
ERN1 (human) = ERN1 (human) (UniProt O75460)
[1] = system: FLT3 (human), P36888 [K663Q]
HIPK3 (human) = HIPK3 (human) (UniProt Q9H422)
HIPK4 (human) = HIPK4 (human) (UniProt Q8NE63)
HUNK (human) = HUNK (human) (UniProt P57058)
ICK (human) = ICK (human) (UniProt Q9UPZ9)
IRAK1 (human) = IRAK1 (human) (UniProt P51617)
LRRK2 (human) = LRRK2 (human) (UniProt Q5S007)
MAK (human) = MAK (human) (UniProt P20794)
MAP2K5 (human) = MAP2K5 (human) (UniProt Q13163)
MATK (human) = MATK (human) (UniProt P42679)
NEK11 (human) = NEK11 (human) (UniProt Q8NG66)
NEK3 (human) = NEK3 (human) (UniProt P51956)
NEK4 (human) = NEK4 (human) (UniProt P51957)
OXSR1 (human) = OXSR1 (human) (UniProt O95747)
PI4KB (human) = PI4KB (human) (UniProt Q9UBF8)
PIK3CA (human) = PIK3CA (human) (UniProt P42336)
[2] = system: PIK3CA (human), P42336 [E545A]
[3] = system: PIK3CA (human), P42336 [E545K]
PIP5K1C (human) = PIP5K1C (human) (UniProt O60331)
PKN3 (M.tuberculosis) = PKN3 (M.tuberculosis) (UniProt Q6P5Z2)
PRPF4B (human) = PRPF4B (human) (UniProt Q13523)
ROCK1 (human) = ROCK1 (human) (UniProt Q13464)
RPS6KB1 (human) = RPS6KB1 (human) (UniProt P23443)
SBK1 (human) = SBK1 (human) (UniProt Q52WX2)
STK32A (human) = STK32A (human) (UniProt Q8WU08)
STK38 (human) = STK38 (human) (UniProt Q15208)
TBK1 (human) = TBK1 (human) (UniProt Q9UHD2)
TIE1 (human) = TIE1 (human) (UniProt P35590)
TRPM6 (human) = TRPM6 (human) (UniProt Q9BX84)

Sequence of NEK11 (human) (Q8NG66 whole entry, looked up): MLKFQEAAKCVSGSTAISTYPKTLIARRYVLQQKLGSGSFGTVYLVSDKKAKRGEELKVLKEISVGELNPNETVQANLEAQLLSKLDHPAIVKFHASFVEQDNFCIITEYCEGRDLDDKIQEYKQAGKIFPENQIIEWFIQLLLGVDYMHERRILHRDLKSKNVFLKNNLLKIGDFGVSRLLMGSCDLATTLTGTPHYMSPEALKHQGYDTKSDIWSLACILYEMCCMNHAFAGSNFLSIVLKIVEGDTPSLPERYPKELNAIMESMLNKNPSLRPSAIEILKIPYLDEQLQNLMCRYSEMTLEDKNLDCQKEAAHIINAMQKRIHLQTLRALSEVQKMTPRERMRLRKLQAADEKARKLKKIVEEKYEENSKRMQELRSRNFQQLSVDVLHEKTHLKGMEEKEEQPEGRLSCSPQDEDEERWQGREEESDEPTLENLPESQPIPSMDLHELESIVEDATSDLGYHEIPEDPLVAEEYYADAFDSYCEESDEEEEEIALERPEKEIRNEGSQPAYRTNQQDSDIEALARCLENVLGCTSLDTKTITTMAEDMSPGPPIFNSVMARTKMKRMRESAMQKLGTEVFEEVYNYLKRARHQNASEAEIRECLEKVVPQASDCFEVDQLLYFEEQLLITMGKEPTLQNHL
Sequence of NEK4 (human) (P51957 whole entry, looked up): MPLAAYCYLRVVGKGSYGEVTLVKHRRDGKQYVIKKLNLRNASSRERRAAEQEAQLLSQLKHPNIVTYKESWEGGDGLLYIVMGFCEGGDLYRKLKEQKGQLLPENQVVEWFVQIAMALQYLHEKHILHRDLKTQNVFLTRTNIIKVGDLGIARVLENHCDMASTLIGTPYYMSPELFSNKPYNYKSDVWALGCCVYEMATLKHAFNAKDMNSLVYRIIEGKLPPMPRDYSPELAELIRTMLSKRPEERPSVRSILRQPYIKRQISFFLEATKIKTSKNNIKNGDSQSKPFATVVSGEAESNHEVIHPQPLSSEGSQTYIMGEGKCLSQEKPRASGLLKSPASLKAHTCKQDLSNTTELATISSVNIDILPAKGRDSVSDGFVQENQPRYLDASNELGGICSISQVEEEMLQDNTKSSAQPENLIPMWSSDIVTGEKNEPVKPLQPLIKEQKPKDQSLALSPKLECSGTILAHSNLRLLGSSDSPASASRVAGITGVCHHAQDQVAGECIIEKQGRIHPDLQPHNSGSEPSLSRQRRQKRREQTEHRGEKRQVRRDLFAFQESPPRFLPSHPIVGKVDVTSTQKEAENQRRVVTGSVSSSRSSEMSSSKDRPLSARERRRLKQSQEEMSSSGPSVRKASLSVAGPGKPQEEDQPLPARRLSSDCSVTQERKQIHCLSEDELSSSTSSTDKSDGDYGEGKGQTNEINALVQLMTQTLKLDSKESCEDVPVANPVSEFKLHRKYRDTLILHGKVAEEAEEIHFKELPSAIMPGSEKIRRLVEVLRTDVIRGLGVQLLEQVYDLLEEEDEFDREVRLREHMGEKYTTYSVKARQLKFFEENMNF
Sequence of MAK (human) (P20794 whole entry, looked up): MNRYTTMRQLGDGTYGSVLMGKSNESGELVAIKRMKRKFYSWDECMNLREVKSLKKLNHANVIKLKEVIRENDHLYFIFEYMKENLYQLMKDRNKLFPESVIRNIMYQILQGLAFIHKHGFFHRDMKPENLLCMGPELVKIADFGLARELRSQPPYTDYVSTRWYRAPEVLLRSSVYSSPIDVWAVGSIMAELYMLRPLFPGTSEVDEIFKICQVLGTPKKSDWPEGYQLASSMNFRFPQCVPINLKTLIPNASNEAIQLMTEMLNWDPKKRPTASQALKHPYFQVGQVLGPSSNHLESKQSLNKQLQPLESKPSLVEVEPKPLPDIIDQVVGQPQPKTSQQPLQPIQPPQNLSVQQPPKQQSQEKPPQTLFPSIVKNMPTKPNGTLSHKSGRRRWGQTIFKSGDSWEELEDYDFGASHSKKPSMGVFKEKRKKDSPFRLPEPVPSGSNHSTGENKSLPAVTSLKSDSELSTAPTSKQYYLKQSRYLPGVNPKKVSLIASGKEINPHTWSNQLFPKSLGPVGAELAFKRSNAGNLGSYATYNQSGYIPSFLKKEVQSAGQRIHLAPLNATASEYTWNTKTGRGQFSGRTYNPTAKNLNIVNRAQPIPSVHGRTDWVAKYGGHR
Sequence of PKN3 (M.tuberculosis) (Q6P5Z2 whole entry, looked up): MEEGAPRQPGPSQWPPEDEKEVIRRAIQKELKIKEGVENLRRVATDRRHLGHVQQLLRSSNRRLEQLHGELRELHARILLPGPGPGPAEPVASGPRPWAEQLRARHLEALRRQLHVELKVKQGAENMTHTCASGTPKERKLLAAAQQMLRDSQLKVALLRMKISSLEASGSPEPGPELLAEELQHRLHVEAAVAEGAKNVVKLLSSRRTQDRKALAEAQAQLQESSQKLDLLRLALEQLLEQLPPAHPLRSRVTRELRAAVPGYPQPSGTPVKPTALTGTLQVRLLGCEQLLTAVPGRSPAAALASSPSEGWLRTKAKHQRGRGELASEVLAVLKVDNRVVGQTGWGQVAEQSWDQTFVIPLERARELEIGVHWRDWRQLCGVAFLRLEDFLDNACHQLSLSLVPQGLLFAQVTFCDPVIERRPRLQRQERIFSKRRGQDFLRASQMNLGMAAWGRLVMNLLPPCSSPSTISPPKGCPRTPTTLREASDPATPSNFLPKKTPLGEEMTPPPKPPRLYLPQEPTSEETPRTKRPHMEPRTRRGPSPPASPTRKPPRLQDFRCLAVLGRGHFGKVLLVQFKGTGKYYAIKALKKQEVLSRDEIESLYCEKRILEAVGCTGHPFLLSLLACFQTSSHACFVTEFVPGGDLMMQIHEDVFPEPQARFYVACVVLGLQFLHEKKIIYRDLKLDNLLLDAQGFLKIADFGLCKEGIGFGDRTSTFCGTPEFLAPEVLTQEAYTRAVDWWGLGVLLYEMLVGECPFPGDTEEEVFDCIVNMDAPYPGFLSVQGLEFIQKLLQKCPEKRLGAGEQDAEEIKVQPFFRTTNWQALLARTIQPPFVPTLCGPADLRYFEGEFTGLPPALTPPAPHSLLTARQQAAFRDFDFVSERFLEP
Sequence of CDKL5 (human) (O76039 whole entry, looked up): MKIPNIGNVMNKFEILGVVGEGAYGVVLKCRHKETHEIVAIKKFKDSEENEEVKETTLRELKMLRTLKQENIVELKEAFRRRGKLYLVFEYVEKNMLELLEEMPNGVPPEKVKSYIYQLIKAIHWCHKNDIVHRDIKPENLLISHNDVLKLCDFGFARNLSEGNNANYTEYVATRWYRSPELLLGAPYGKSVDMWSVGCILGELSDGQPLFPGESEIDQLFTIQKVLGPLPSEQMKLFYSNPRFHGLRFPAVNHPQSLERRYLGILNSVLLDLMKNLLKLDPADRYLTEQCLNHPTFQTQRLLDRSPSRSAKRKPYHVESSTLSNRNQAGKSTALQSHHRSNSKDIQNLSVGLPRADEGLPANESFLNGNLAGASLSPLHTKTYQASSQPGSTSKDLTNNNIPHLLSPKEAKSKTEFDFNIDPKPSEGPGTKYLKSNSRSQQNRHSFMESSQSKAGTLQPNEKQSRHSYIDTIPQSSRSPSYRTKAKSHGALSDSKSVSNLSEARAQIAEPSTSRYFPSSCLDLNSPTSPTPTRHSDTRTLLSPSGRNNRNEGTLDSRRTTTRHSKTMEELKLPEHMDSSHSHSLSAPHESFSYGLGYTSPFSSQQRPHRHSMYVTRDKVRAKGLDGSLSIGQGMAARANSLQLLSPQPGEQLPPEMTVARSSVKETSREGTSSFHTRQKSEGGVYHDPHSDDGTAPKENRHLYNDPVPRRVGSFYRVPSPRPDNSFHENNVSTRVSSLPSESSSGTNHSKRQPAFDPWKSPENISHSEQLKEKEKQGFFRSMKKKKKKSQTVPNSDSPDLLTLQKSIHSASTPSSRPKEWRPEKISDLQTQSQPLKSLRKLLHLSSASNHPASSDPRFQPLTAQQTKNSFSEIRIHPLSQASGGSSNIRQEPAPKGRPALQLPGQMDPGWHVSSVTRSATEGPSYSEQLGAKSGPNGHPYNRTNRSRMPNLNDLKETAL
Sequence of MATK (human) (P42679 whole entry, looked up): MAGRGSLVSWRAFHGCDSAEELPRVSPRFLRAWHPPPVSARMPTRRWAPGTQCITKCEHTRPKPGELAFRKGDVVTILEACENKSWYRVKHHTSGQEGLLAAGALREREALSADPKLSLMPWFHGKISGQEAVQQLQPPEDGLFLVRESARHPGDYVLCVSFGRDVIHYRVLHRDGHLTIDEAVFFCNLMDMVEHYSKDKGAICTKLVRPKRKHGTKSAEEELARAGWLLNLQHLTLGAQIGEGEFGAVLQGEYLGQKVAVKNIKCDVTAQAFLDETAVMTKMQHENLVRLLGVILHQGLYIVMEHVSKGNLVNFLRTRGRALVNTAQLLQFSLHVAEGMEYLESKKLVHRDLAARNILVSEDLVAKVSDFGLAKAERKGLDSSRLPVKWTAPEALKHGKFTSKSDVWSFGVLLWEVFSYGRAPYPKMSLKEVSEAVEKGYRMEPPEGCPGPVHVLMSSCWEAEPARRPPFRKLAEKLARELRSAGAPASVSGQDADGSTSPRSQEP
Sequence of NEK3 (human) (P51956 whole entry, looked up): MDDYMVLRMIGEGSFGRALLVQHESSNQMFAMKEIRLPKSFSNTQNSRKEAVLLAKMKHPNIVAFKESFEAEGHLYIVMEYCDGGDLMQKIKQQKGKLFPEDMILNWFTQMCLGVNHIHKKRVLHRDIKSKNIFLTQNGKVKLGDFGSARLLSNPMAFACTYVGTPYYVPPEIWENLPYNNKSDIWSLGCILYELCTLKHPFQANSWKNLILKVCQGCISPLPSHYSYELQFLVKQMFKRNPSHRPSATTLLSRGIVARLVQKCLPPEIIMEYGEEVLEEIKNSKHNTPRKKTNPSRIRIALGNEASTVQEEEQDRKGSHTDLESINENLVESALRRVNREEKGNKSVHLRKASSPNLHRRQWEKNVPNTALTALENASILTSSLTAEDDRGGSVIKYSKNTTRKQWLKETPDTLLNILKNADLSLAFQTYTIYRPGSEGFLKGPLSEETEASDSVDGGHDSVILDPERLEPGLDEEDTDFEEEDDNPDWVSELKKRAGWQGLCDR

## C=CC(=O)Nc1cc(NC(=O)c2ccc(C)c(NC(=O)c3ccno3)c2)cc(C(F)(F)F)c1
CDK4 CCND1 (human)
  kinase still bound, per cent of control: 100%
CDKL1 (human)
  kinase still bound, per cent of control: 100%
CDKL3 (human)
  kinase still bound, per cent of control: 90%
CDKL5 (human)
  kinase still bound, per cent of control: 100%
DDR1 (human)
  kinase still bound, per cent of control: 0.1%
DSTYK (human)
  kinase still bound, per cent of control: 100%
DYRK2 (human)
  kinase still bound, per cent of control: 78%
EIF2AK1 (human)
  kinase still bound, per cent of control: 100%
EPHB6 (human)
  kinase still bound, per cent of control: 81%
ERBB3 (human)
  kinase still bound, per cent of control: 100%
ERN1 (human)
  kinase still bound, per cent of control: 90%
[1]
  kinase still bound, per cent of control: 100%
HIPK3 (human)
  kinase still bound, per cent of control: 100%
HIPK4 (human)
  kinase still bound, per cent of control: 100%
HUNK (human)
  kinase still bound, per cent of control: 100%
ICK (human)
  kinase still bound, per cent of control: 75%
IRAK1 (human)
  kinase still bound, per cent of control: 100%
LRRK2 (human)
  kinase still bound, per cent of control: 89%
MAK (human)
  kinase still bound, per cent of control: 84%
MAP2K5 (human)
  kinase still bound, per cent of control: 80%
MATK (human)
  kinase still bound, per cent of control: 100%
NEK11 (human)
  kinase still bound, per cent of control: 100%
NEK3 (human)
  kinase still bound, per cent of control: 88%
NEK4 (human)
  kinase still bound, per cent of control: 84%
OXSR1 (human)
  kinase still bound, per cent of control: 100%
PI4KB (human)
  kinase still bound, per cent of control: 88%
PIK3CA (human)
  kinase still bound, per cent of control: 76%
[2]
  kinase still bound, per cent of control: 86%
[3]
  kinase still bound, per cent of control: 95%
PIP5K1C (human)
  kinase still bound, per cent of control: 100%
PKN3 (M.tuberculosis)
  kinase still bound, per cent of control: 75%
PRPF4B (human)
  kinase still bound, per cent of control: 100%
ROCK1 (human)
  kinase still bound, per cent of control: 100%
RPS6KB1 (human)
  kinase still bound, per cent of control: 87%
SBK1 (human)
  kinase still bound, per cent of control: 100%
STK32A (human)
  kinase still bound, per cent of control: 100%
STK38 (human)
  kinase still bound, per cent of control: 90%
TBK1 (human)
  kinase still bound, per cent of control: 100%
TIE1 (human)
  kinase still bound, per cent of control: 100%
TRPM6 (human)
  kinase still bound, per cent of control: 100%

## C=CC(=O)Nc1cccc(Nc2nc(N[C@H]3CC[C@H](N(C)C)CC3)nc3c2ncn3C(C)C)c1
CDK4 CCND1 (human)
  kinase still bound, per cent of control: 40%
CDKL1 (human)
  kinase still bound, per cent of control: 100%
CDKL3 (human)
  kinase still bound, per cent of control: 100%
CDKL5 (human)
  kinase still bound, per cent of control: 100%
DDR1 (human)
  kinase still bound, per cent of control: 100%
DSTYK (human)
  kinase still bound, per cent of control: 86%
DYRK2 (human)
  kinase still bound, per cent of control: 58%
EIF2AK1 (human)
  kinase still bound, per cent of control: 100%
EPHB6 (human)
  kinase still bound, per cent of control: 74%
ERBB3 (human)
  kinase still bound, per cent of control: 94%
ERN1 (human)
  kinase still bound, per cent of control: 96%
[1]
  kinase still bound, per cent of control: 1.2%
HIPK3 (human)
  kinase still bound, per cent of control: 26%
HIPK4 (human)
  kinase still bound, per cent of control: 63%
HUNK (human)
  kinase still bound, per cent of control: 85%
ICK (human)
  kinase still bound, per cent of control: 100%
IRAK1 (human)
  kinase still bound, per cent of control: 1.8%
LRRK2 (human)
  kinase still bound, per cent of control: 61%
MAK (human)
  kinase still bound, per cent of control: 100%
MAP2K5 (human)
  kinase still bound, per cent of control: 59%
MATK (human)
  kinase still bound, per cent of control: 40%
NEK11 (human)
  kinase still bound, per cent of control: 54%
NEK3 (human)
  kinase still bound, per cent of control: 60%
NEK4 (human)
  kinase still bound, per cent of control: 100%
OXSR1 (human)
  kinase still bound, per cent of control: 33%
PI4KB (human)
  kinase still bound, per cent of control: 100%
PIK3CA (human)
  kinase still bound, per cent of control: 100%
[2]
  kinase still bound, per cent of control: 100%
[3]
  kinase still bound, per cent of control: 100%
PIP5K1C (human)
  kinase still bound, per cent of control: 100%
PKN3 (M.tuberculosis)
  kinase still bound, per cent of control: 82%
PRPF4B (human)
  kinase still bound, per cent of control: 90%
ROCK1 (human)
  kinase still bound, per cent of control: 16%
RPS6KB1 (human)
  kinase still bound, per cent of control: 87%
SBK1 (human)
  kinase still bound, per cent of control: 20%
STK32A (human)
  kinase still bound, per cent of control: 89%
STK38 (human)
  kinase still bound, per cent of control: 19%
TBK1 (human)
  kinase still bound, per cent of control: 84%
TIE1 (human)
  kinase still bound, per cent of control: 86%
TRPM6 (human)
  kinase still bound, per cent of control: 66%
